Laboratory results taken from PubChem BioAssay AID2060899 (Molecular Pharmacology Branch, DTP, NCI, 2025).
pIC50: −log10 of the molar value. One block for each molecule: values may come before it.

System: 565726-208-R1-J5-PDC complex spheroids, growth inhibition
Assay: Anticancer human tumor 565726-208-R1-J5-PDC patient-derived pancreatic adenocarcinoma cell line growth inhibition [RAS]
Conditions: for pIC50: curve of first compound; for viability, T/C: stronger effect = lower value
Method in brief: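 Agents were tested in combination matrices in half-log decrements from a top concentration at or near clinical Cmax (10 microM if undetermined). Targets were multi-cell spheroids of tumour lines plus HUVEC and MSC stromal cells.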

[1] = second compound 0.000949 µM, first compound 0.0316 µM
[2] = second compound 0.000949 µM, first compound 0.1 µM
[3] = second compound 0.000949 µM, first compound 0.316 µM
[4] = second compound 0.000949 µM, first compound 1 µM
[5] = second compound 0.000949 µM, first compound 3.16 µM
[6] = second compound 0.000949 µM, first compound 10 µM
[7] = second compound 0.003 µM, first compound 0.0316 µM
[8] = second compound 0.003 µM, first compound 0.1 µM
[9] = second compound 0.003 µM, first compound 0.316 µM
[10] = second compound 0.003 µM, first compound 1 µM
[11] = second compound 0.003 µM, first compound 3.16 µM
[12] = second compound 0.003 µM, first compound 10 µM
[13] = second compound 0.00949 µM, first compound 0.0316 µM
[14] = second compound 0.00949 µM, first compound 0.1 µM
[15] = second compound 0.00949 µM, first compound 0.316 µM
[16] = second compound 0.00949 µM, first compound 1 µM
[17] = second compound 0.00949 µM, first compound 3.16 µM
[18] = second compound 0.00949 µM, first compound 10 µM
[19] = second compound 0.03 µM, first compound 0.0316 µM
[20] = second compound 0.03 µM, first compound 0.1 µM
[21] = second compound 0.03 µM, first compound 0.316 µM
[22] = second compound 0.03 µM, first compound 1 µM
[23] = second compound 0.03 µM, first compound 3.16 µM
[24] = second compound 0.03 µM, first compound 10 µM
[25] = second compound 0.0949 µM, first compound 0.0316 µM
[26] = second compound 0.0949 µM, first compound 0.1 µM
[27] = second compound 0.0949 µM, first compound 0.316 µM
[28] = second compound 0.0949 µM, first compound 1 µM
[29] = second compound 0.0949 µM, first compound 3.16 µM
[30] = second compound 0.0949 µM, first compound 10 µM
[31] = second compound 0.3 µM, first compound 0.0316 µM
[32] = second compound 0.3 µM, first compound 0.1 µM
[33] = second compound 0.3 µM, first compound 0.316 µM
[34] = second compound 0.3 µM, first compound 1 µM
[35] = second compound 0.3 µM, first compound 3.16 µM
[36] = second compound 0.3 µM, first compound 10 µM
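Further: spheroids exposed to compounds for seven days before readout.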
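Wherever viability, T/C is given: 100% = DMSO vehicle control viability.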

pIC50 (second compound 0.000949 µM): 6.29
pIC50 (second compound 0.003 µM): 6.47
pIC50 (second compound 0.00949 µM): > 7.50
pIC50 (second compound 0.03 µM): > 7.50
pIC50 (second compound 0.0949 µM): > 7.50
pIC50 (second compound 0.3 µM): > 7.50
SMILES: CCC(CC)c1cc(NC2CCC(N)C2)n2nccc2n1 (centres undefined) + CCn1c(-c2cc(N3CCN(C)CC3)cnc2C(C)OC)c2c3cc(ccc31)-c1csc(n1)CC(NC(=O)C1CC1C)C(=O)N1CCCC(N1)C(=O)OCC(C)(C)C2
viability, T/C [1]: 61.1%
viability, T/C [2]: 60%
viability, T/C [3]: 65.7%
viability, T/C [4]: 32.4%
viability, T/C [5]: 0.45%
viability, T/C [6]: 1.67%
viability, T/C [7]: 56.6%
viability, T/C [8]: 51.5%
viability, T/C [9]: 50%
viability, T/C [10]: 27.7%
viability, T/C [11]: 0.47%
viability, T/C [12]: 1.59%
viability, T/C [13]: 47.2%
viability, T/C [14]: 38.9%
viability, T/C [15]: 34%
viability, T/C [16]: 24.6%
viability, T/C [17]: 0.24%
viability, T/C [18]: 2.02%
viability, T/C [19]: 31.3%
viability, T/C [20]: 36.5%
viability, T/C [21]: 31%
viability, T/C [22]: 20.2%
viability, T/C [23]: 0.4%
viability, T/C [24]: 1.85%
viability, T/C [25]: 27.4%
viability, T/C [26]: 27%
viability, T/C [27]: 24.2%
viability, T/C [28]: 16.8%
viability, T/C [29]: 0.44%
viability, T/C [30]: 1.98%
viability, T/C [31]: 23.5%
viability, T/C [32]: 27.1%
viability, T/C [33]: 23.1%
viability, T/C [34]: 13.9%
viability, T/C [35]: 0.5%
viability, T/C [36]: 1.9%

pIC50 (second compound 0.000949 µM): 6.69
pIC50 (second compound 0.003 µM): 7.41
pIC50 (second compound 0.00949 µM): > 7.50
pIC50 (second compound 0.03 µM): > 7.50
pIC50 (second compound 0.0949 µM): > 7.50
pIC50 (second compound 0.3 µM): > 7.50
SMILES: Cc1nc(N2CCC3(CC2)COC(C)C3N)c(CO)nc1Sc1ccnc(N)c1Cl (centres undefined) + CCn1c(-c2cc(N3CCN(C)CC3)cnc2C(C)OC)c2c3cc(ccc31)-c1csc(n1)CC(NC(=O)C1CC1C)C(=O)N1CCCC(N1)C(=O)OCC(C)(C)C2
viability, T/C [1]: 63.1%
viability, T/C [2]: 53.6%
viability, T/C [3]: 48.3%
viability, T/C [4]: 39.5%
viability, T/C [5]: 33%
viability, T/C [6]: 28%
viability, T/C [7]: 51.3%
viability, T/C [8]: 43.4%
viability, T/C [9]: 34.3%
viability, T/C [10]: 27.6%
viability, T/C [11]: 29.1%
viability, T/C [12]: 22%
viability, T/C [13]: 40.5%
viability, T/C [14]: 34.8%
viability, T/C [15]: 26.1%
viability, T/C [16]: 22.2%
viability, T/C [17]: 20.9%
viability, T/C [18]: 17.1%
viability, T/C [19]: 29.1%
viability, T/C [20]: 28.4%
viability, T/C [21]: 22.2%
viability, T/C [22]: 18%
viability, T/C [23]: 19.8%
viability, T/C [24]: 16.9%
viability, T/C [25]: 22.9%
viability, T/C [26]: 21.2%
viability, T/C [27]: 20.1%
viability, T/C [28]: 15.9%
viability, T/C [29]: 18.3%
viability, T/C [30]: 17.2%
viability, T/C [31]: 24.4%
viability, T/C [32]: 20%
viability, T/C [33]: 17%
viability, T/C [34]: 13.8%
viability, T/C [35]: 16.2%
viability, T/C [36]: 15.5%
